{"source": "patent US20080009546A1", "about": "(Chevron U.S.A. Inc., priority 2005, published 2008)", "key": {"[1]": {"tested_on": "primary neurons from rat cerebral cortex", "experiment": "NMDA-induced LDH release assay in primary cortical neurons (neuroprotection)", "type": "cell-based", "conditions": "for EC50: Rattus norvegicus, Primary neuron, two experiments, 300 uM NMDA + 50 μM glycine 15 minutes, LDH after 24 hours, read-out: average EC50 (±SD), NMDA-induced LDH release", "description": "The neuroprotective properties of drugs have been studied in vitro, using neurons cultured from cortex, cerebellum or retina. […] Neurotoxicity is determined in this assay by measuring lactate dehydrogenase (LDH), a method which is simple, accurate and reproducible. We conducted pilot studies to test if poly-lysine-coated plates would be suitable as a matrix upon which to plate fetal neurons, compared to astrocyte-coated plates. We also compared the use of growth medium to neurobasal medium supplemented with B27 in the pilot experiments. The concentrations of NMDA (300-500 μM), glycine (10-50 μM), and memantine (10-100 μM) were varied, and optimum concentrations and times determined from these pilot studies were then chosen for the main study. The assay is described below.\nFetal rat neocortical cells were cultured on a mouse astroglial feeder layer. To obtain mouse astroglial cells for the feeder layer, cortices were harvested from 1-day old Swiss Webster mice (Charles River, Hollister, Calif.) according to the procedure described by Rose et al (1993). After dissecting cortices in ice-cold dissecting medium, they were minced and incubated in 0.09% trypsin in media stock for 1 hr, followed by resuspension in growth medium containing 10% equine serum and 10% fetal bovine serum. A single-cell suspension was obtained by triturating through fire-bored glass pipettes, and the resulting cell suspension was plated at a density of 0.5-0.75 hemispheres/24-well plate/9.6 ml, with 0.4 ml/well. Plates were incubated in a humidified incubator at 37° C., 5% CO2. Astroglial cells become confluent in about 2-3 weeks, at which time these cultures are ready to be used as feeder layers upon which neuronal cultures can be plated. Neuronal cells were obtained from gestational Sprague-Dawley rats E16-E18, using a similar dissection procedure. Rat embryos were dissected to obtain cortical tissue, which was plated as a single-cell suspension at a density of 1.4 hemispheres/24-well plate/9.6 ml, with 0.4 ml/well. These cells were plated on the existing astroglial feeder layer, and were incubated at 37° C., 5% CO2. After 5 days in culture, cytosine arabinoside (10 μM) was added to the wells to inhibit glial cell proliferation, and after 24 hours, the medium was replaced with fresh growth medium. Cells were fed with fresh growth medium every 2 days, until the experiments were performed. For coating plates with poly-lysine, we used poly-d-lysine hydrobromide (Sigma Cat # P7280) at a concentration of 0.1 mg/ml to coat each well using a minimum volume of 0.2 ml/well. After coating for 5 minutes, the solution was aspirated and wells were rinsed thoroughly with sterile tissue culture grade water. After drying for 2 hours, plates were ready for use. Neuronal cultures were plated onto poly-lysine-coated plates at the same density as above. For the pilot study, some of the cultures were fed with 1:1 ratio of growth medium: neurobasal medium (GIBCO)+B-27 supplement (2%), while the rest of the cultures were fed with growth medium alone (Losi et al., 2006). For the main study, we used astroglial feeder layers to plate the neuronal cultures, and used a mix (1:1) of growth medium with neurobasal medium+B-27 supplement for feeding the cultures.\nAfter 11-14 days in culture, neuronal cells were confluent and experiments were performed. Cells were washed twice using sterile Locke's buffer (154 mM NaCl, 5.6 mM KCl, 2.3 mM CaCl2, 3.6 mM NaHCO3, 5.5 mM D-glucose, 5 mM HEPES, pH 7.4), and then exposed to the various treatment compounds. […] After 15 minutes, cultures were washed twice and incubated overnight in media stock. After 24 hours, supernatants and lysates were collected to measure LDH activity. LDH activity was measured by the reduction of NAD, which was utilized in the stoichiometric conversion of a tetrazolium dye using a kit (Sigma TOX-7). Supernatants were removed from the wells and centrifuged before LDH measurements. The adherent cells were lysed to obtain total LDH. […]"}, "NMDA receptor": {"tested_on": "NMDA receptor", "experiment": "[3H]MK-801 binding assay, NMDA receptors in guinea pig brain membranes", "conditions": "for Relative affinity: compared to that of Memantine; for Ki: read-out: Ki", "description": "Hartley guinea pigs were sacrificed, and their brains were quickly removed and weighed. The brains then were homogenized in 50 mM Tris HCl buffer, pH 7.7, using a Polytron homogenizer. The homogenate was centrifuged at 40,000×g for 15 min, rehomogenized, and centrifuged again. The final pellet was resuspended in Tris-HCl, pH 7.7, at a final concentration of 6.67 mg original wet weight of tissue/ml. […] The samples were then filtered through glass fiber filters on a Tomtec cell harvester. The filters were washed 3 times with 3 ml of cold buffer. Filters were dried overnight and counted next day on a Wallac Betaplate Reader.\nThe binding experiments were conducted as follows. […] For each compound, graphs were prepared containing individual competition curves obtained for that compound. IC50 values and Hill coefficients were calculated using the program Prism. Ki values were calculated using the Chang Prusoff transformation: Ki=IC50/(1+L/Kd)\nwhere L is radioligand concentration and Kd is the binding affinity of the radioligand, as determined previously by saturation analysis. […] In each experiment, one standard compound was simultaneously run on each 96 well plate."}, "[2]": {"conditions": "guinea pig brain membrane preparation (Table 29)"}, "[3]": {"conditions": "NMDA 300 μM + 10 μM glycine, astrocyte-coated rat neurons, GM/NB + B-27 fed, 21 hour incubation"}, "[4]": {"conditions": "NMDA 300 μM + 10 μM glycine, poly-lysine-coated rat neurons, GM/NB + B-27 fed, 40 hour incubation"}, "[5]": {"conditions": "NMDA 300 uM + 50 uM glycine, astrocyte-coated rat neurons, GM/NB + B-27 fed, 24 hour incubation"}, "[6]": {"conditions": "NMDA 300 uM + glycine 50 uM, Plate #4, poly-lysine-coated rat neurons, GM/NB + B-27 fed, 24 hour incubation"}, "[7]": {"conditions": "NMDA 300 uM + glycine 50 uM, Plate #5, astrocyte-coated rat neurons, GM fed, 24 hour incubation"}, "[8]": {"conditions": "NMDA 300 μM - 21 hr, astrocyte-coated rat neurons, GM/NB + B-27 fed, 21 hour incubation"}, "[9]": {"conditions": "NMDA 300 uM - 40 hr, poly-lysine-coated rat neurons, GM/NB + B-27 fed, 40 hour incubation"}, "[10]": {"conditions": "NMDA 500 μM + 10 μM glycine, astrocyte-coated rat neurons, GM/NB + B-27 fed, 21 hour incubation"}, "[11]": {"conditions": "NMDA 500 uM + 10 uM glycine, poly-lysine-coated rat neurons, GM/NB + B-27 fed, 40 hour incubation"}, "[12]": {"conditions": "NMDA 500 μM - 21 hr, astrocyte-coated rat neurons, GM/NB + B-27 fed, 21 hour incubation"}, "[13]": {"conditions": "NMDA 500 uM - 40 hr, poly-lysine-coated rat neurons, GM/NB + B-27 fed, 40 hour incubation"}}, "note": "Like-named read-outs stand apart in the source and are kept apart here."}
{"smiles": "CC12CC3CC4C5CC(N)(CC41)CC2C5C3", "note": "[MDT-24, 1-methyl-4-aminodiamantane]", "values": [{"measurement": "EC50", "setting": "[1]", "result": "34.3 ± 11.3", "unit": "µM"}, {"measurement": "Relative affinity", "setting": "NMDA receptor", "result": 0.045}, {"measurement": "Ki", "setting": "NMDA receptor; [2]", "result": "13.4 ± 5.1", "unit": "µM"}]}
{"smiles": "CC12CC3CC4C1CC1CC2C(N)(C3)C4(C)C1", "note": "(stereo not drawn) [MDT-43, 1,6-dimethyl-2-aminodiamantane]", "values": [{"measurement": "EC50", "setting": "[1]", "result": "28.4 ± 12.8", "unit": "µM"}, {"measurement": "Relative affinity", "setting": "NMDA receptor", "result": 0.143}, {"measurement": "Ki", "setting": "NMDA receptor; [2]", "result": "5.1 ± 0.7", "unit": "µM"}]}
{"smiles": "CC12CC3C4CC5(C)CC3C(C1)C(N)(C5)C4C2", "note": "[MDT-51, 4,9-dimethyl-1-aminodiamantane]", "values": [{"measurement": "EC50", "setting": "[1]", "result": "15.7 ± 9.1", "unit": "µM"}, {"measurement": "Relative affinity", "setting": "NMDA receptor", "result": 0.155}, {"measurement": "Ki", "setting": "NMDA receptor; [2]", "result": "4.7 ± 2.4", "unit": "µM"}]}
{"smiles": "CN[C@H](CC(=O)O)C(=O)O", "note": "[NMDA]", "values": [{"measurement": "% (Control Wash = 100)", "setting": "[1]; [3]", "result": 144, "unit": "%"}, {"measurement": "Secreted LDH (Avg)", "setting": "[1]; [3]", "result": 0.44}, {"measurement": "Secreted/(total + secreted) (Avg)", "setting": "[1]; [3]", "result": 11.95}, {"measurement": "Total LDH (Avg)", "setting": "[1]; [3]", "result": 3.25}, {"measurement": "% (Control Wash = 100)", "setting": "[1]; [4]", "result": 116, "unit": "%"}, {"measurement": "Secreted LDH (Avg)", "setting": "[1]; [4]", "result": 0.39}, {"measurement": "Secreted/(total + secreted) (Avg)", "setting": "[1]; [4]", "result": 13.33}, {"measurement": "Total LDH (Avg)", "setting": "[1]; [4]", "result": 2.56}, {"measurement": "% (Control Wash = 100)", "setting": "[1]; [5]", "result": 271, "unit": "%"}, {"measurement": "Secreted LDH (Avg)", "setting": "[1]; [5]", "result": 0.76}, {"measurement": "Secreted/(total + secreted) (Avg)", "setting": "[1]; [5]", "result": 19.61}, {"measurement": "Total LDH (Avg)", "setting": "[1]; [5]", "result": 3.10}, {"measurement": "% (Control Wash = 100)", "setting": "[1]; [6]", "result": 163, "unit": "%"}, {"measurement": "Secreted LDH (Avg)", "setting": "[1]; [6]", "result": 0.69}, {"measurement": "Secreted/(total + secreted) (Avg)", "setting": "[1]; [6]", "result": 17.79}, {"measurement": "Total LDH (Avg)", "setting": "[1]; [6]", "result": 3.19}, {"measurement": "% (Control Wash = 100)", "setting": "[1]; [7]", "result": 109, "unit": "%"}, {"measurement": "Secreted LDH (Avg)", "setting": "[1]; [7]", "result": 0.20}, {"measurement": "Secreted/(total + secreted) (Avg)", "setting": "[1]; [7]", "result": 6.37}, {"measurement": "Total LDH (Avg)", "setting": "[1]; [7]", "result": 2.90}, {"measurement": "% (Control Wash = 100)", "setting": "[1]; [8]", "result": 166, "unit": "%"}, {"measurement": "Secreted LDH (Avg)", "setting": "[1]; [8]", "result": 0.52}, {"measurement": "Secreted/(total + secreted) (Avg)", "setting": "[1]; [8]", "result": 13.82}, {"measurement": "Total LDH (Avg)", "setting": "[1]; [8]", "result": 3.22}, {"measurement": "% (Control Wash = 100)", "setting": "[1]; [9]", "result": 127, "unit": "%"}, {"measurement": "Secreted LDH (Avg)", "setting": "[1]; [9]", "result": 0.45}, {"measurement": "Secreted/(total + secreted) (Avg)", "setting": "[1]; [9]", "result": 14.55}, {"measurement": "Total LDH (Avg)", "setting": "[1]; [9]", "result": 2.61}, {"measurement": "% (Control Wash = 100)", "setting": "[1]; [10]", "result": 139, "unit": "%"}, {"measurement": "Secreted LDH (Avg)", "setting": "[1]; [10]", "result": 0.51}, {"measurement": "Secreted/(total + secreted) (Avg)", "setting": "[1]; [10]", "result": 11.56}, {"measurement": "Total LDH (Avg)", "setting": "[1]; [10]", "result": 3.91}, {"measurement": "% (Control Wash = 100)", "setting": "[1]; [11]", "result": 114, "unit": "%"}, {"measurement": "Secreted LDH (Avg)", "setting": "[1]; [11]", "result": 0.44}, {"measurement": "Secreted/(total + secreted) (Avg)", "setting": "[1]; [11]", "result": 13.07}, {"measurement": "Total LDH (Avg)", "setting": "[1]; [11]", "result": 2.92}, {"measurement": "% (Control Wash = 100)", "setting": "[1]; [12]", "result": 147, "unit": "%"}, {"measurement": "Secreted LDH (Avg)", "setting": "[1]; [12]", "result": 0.51}, {"measurement": "Secreted/(total + secreted) (Avg)", "setting": "[1]; [12]", "result": 12.23}, {"measurement": "Total LDH (Avg)", "setting": "[1]; [12]", "result": 3.65}, {"measurement": "% (Control Wash = 100)", "setting": "[1]; [13]", "result": 125, "unit": "%"}, {"measurement": "Secreted LDH (Avg)", "setting": "[1]; [13]", "result": 0.48}, {"measurement": "Secreted/(total + secreted) (Avg)", "setting": "[1]; [13]", "result": 14.35}, {"measurement": "Total LDH (Avg)", "setting": "[1]; [13]", "result": 2.91}, {"measurement": "Ki", "setting": "NMDA receptor; standard compounds at the NMDA site (Table 27)", "result": 596, "unit": "µM"}]}
